US20250152616A1, “COMPOSITIONS FOR AND METHODS OF TREATING, PREVENTING, AND/OR MITIGATING PAIN” (Duke University, priority 2022, published 2025)
One block for each compound: values may come before it.

Key:
ADORA2B = target: T1, ADORA2B (Mus musculus, UniProt Q60614); experiment: RT-qPCR of osteogenic genes in BM-MSCs with ADORA2B inhibitor; assay type: cell-based; conditions: BM-MSCs with adenosine 30 μg/mL plus PSB 603, 14 days, vs vehicle DMSO
T1 construct: endogenous in cells; host or cells: primary mouse bone marrow mesenchymal stromal cells (BM-MSCs), passage 1-2
T1 sequence (Q60614 1-332): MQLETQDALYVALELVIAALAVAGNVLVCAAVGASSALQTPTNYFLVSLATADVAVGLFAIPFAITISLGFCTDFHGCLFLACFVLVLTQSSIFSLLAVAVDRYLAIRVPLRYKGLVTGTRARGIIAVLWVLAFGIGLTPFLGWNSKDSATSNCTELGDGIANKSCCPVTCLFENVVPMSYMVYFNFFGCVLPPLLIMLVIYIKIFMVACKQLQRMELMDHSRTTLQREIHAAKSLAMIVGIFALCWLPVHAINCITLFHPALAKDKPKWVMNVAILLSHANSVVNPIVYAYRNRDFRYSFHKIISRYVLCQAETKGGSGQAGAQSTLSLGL
Method: MSCs were isolated as previously described with some modifications (Shih Y B, et al. (2019) Sci Adv. 5:eaax1387). Briefly, the femurs, tibiae, vertebrae of mice were harvested, crushed with pestle and mortar in harvest buffer (1% v/v FBS in PBS) to release bone marrow (BM) tissue, filtered through a 40-μm cell strainer, and centrifuged at 200 rcf. Cells were seeded in a 24-well plate at a cell density of 1 million cells/cm^2 in growth media (GM) containing α-MEM, FBS (10% v/v, ThermoFisher, Cat #16000044), penicillin/streptomycin (10000 U/mL; 1% v/v) and cultured in humidified incubator (37° C., 5% CO2). The medium was replaced after 3 days and further cultured for 6 days before passage. […]
Cells, DRG, or bone/marrow tissues were analyzed for gene expression by quantitative real-time polymerase chain reaction (RT-qPCR). […] Quantitative PCR was performed with iTaq Universal SYBR green reagent (Bio-Rad, Cat #1725124) with denaturation at 95° C. for 30 sec for one cycle, and amplification (denaturation+annealing/extension) at 95° C. for 5 sec and 60° C. for 30 sec for 40 cycles on a polymerase chain reaction (PCR) cycler (Bio-Rad, CFX96 Touch). […]
The expression level of each target gene was normalized to the housekeeping gene and to their respective controls and presented as fold change expressed as 2^−ΔΔCt values. […]

ADORA1 = target: T2, ADORA1 (Mus musculus, UniProt Q60612); experiment: Fura-2 calcium imaging of NGF-exposed, adenosine-treated DRG neurons with ADORA1 inhibitor; assay type: cell-based; conditions: NGF-exposed DRG treated with adenosine 5 μM plus DPCPX 100 nM; capsaicin 100 nM; vehicle DMSO
T2 construct: endogenous in cells; host or cells: primary dissociated mouse L3-L4 DRG neurons
T2 sequence (Q60612 1-326): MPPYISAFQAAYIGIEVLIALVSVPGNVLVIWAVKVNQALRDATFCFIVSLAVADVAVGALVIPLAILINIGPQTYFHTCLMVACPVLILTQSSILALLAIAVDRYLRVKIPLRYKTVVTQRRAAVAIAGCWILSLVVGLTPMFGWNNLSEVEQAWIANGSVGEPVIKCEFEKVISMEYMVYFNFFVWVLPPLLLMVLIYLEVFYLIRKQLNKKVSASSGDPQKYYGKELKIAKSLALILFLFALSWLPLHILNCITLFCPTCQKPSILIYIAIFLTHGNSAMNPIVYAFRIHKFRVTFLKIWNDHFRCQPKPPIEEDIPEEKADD
Source text: DRG were isolated from mice using a modified version of the previously described protocol (Perner C, et al. (2021) STAR Protoc. 2:100333). Briefly, mice were euthanized and dosed in 70% ethanol to prevent fur contamination. Mice were positioned prone, and an incision was made along the spine from the neck to the base of the tail. Under a dissecting microscope, the surrounding soft tissue of the spinal column was removed from the dorsal side by Friedman-Pearson Rongeurs (Fine Science Tools, Foster City, CA, Cat #16021-14) from the mid thoracic region to the lumbosacral joint. The vertebral bone surrounding the DRG was gently crushed and removed with rongeurs exposing the spinal cord. The DRG were carefully extracted near the foramen between the vertebral levels. L3 and L4 DRG were collected for analyses. […] For cell culture experiments, collected DRG were digested in digestion solution comprised of collagenase type II (Worthington, Lakewood, NJ, Cat #LS004176) and dispase (1.5 mg/mL each) dissolved in DMEM/F12. DRG were agitated in a digestion solution on an orbital shaker at 60 rpm and 37° C. for 20 minutes and repeated thrice with fresh digestion solution. […]

TRPV1 = experiment: Immunofluorescence staining of TRPV1 in cultured DRG neurons; assay type: cell-based, mouse; conditions: NGF 200 ng/mL, 1 day incubation, DRG neurons from unfractured mice
Method: To culture DRG neurons, culture media composed of Neurobasal-A medium (ThermoFisher, Cat #10888022), 2% B27 supplement (ThermoFisher, Cat #17504044), 1% glutamax (ThermoFisher, Cat #35050061), and penicillin/streptomycin (10000 U/mL, 1% v/v, ThermoFisher, Cat #15140122) was used. Cells were treated with or without NGF (200 ng/mL) for 24 hr prior to immunofluorescence imaging. Cells were exposed to NGF (200 ng/mL) for 24 hr (long-term) for calcium and FluoVolt imaging. Cells were cultured on custom-made glass surface with silicone wells. Briefly, cover slides (#1 thickness) were cleaned by agitating in 0.5 M NaOH for 30 minutes followed by subsequent rinsing in dH2O followed by 100% ethanol and air-dried. Wells were produced in cured polydimethylsiloxane (PDMS, Sylgard 184, Ellsworth Adhesives, Germantown, WI) with a 8-mm biopsy punch and bonding to the cover slides. […]
Sections were heated for antigen retrieval in citrate buffer (MilliporeSigma, Cat #C9999) for 20 min, permeabilized in 0.1% Triton X-100 in PBS for 10 min, followed by blocking for 1 hr in blocking solution comprised of 3% BSA, 0.26 M glycine, 5% normal donkey serum in Tris buffered saline (TBS) at room temperature. […] Fluorescence intensity was quantified by ImageJ software and presented in arbitrary units.

dissociated DRG neurons [1] = experiment: Fura-2 calcium imaging of dissociated DRG neurons stimulated with capsaicin; assay type: cell-based, mouse; conditions: NGF 200 ng/mL 24 hr vs no NGF; capsaicin 100 nM
Source text: DRG were isolated from mice using a modified version of the previously described protocol (Perner C, et al. (2021) STAR Protoc. 2:100333). Briefly, mice were euthanized and dosed in 70% ethanol to prevent fur contamination. Mice were positioned prone, and an incision was made along the spine from the neck to the base of the tail. Under a dissecting microscope, the surrounding soft tissue of the spinal column was removed from the dorsal side by Friedman-Pearson Rongeurs (Fine Science Tools, Foster City, CA, Cat #16021-14) from the mid thoracic region to the lumbosacral joint. The vertebral bone surrounding the DRG was gently crushed and removed with rongeurs exposing the spinal cord. The DRG were carefully extracted near the foramen between the vertebral levels. L3 and L4 DRG were collected for analyses. Dissected DRG were placed directly into ice-cold DMEM-F12 medium (ThermoFisher, Cat #11320033) for in vitro culture, Trizol (ThermoFisher, Cat #15596018) for PCR analyses, or 4% PFA for histology. For cell culture experiments, collected DRG were digested in digestion solution comprised of collagenase type II (Worthington, Lakewood, NJ, Cat #LS004176) and dispase (1.5 mg/mL each) dissolved in DMEM/F12. DRG were agitated in a digestion solution on an orbital shaker at 60 rpm and 37° C. for 20 minutes and repeated thrice with fresh digestion solution. Next, the digestion solution was replaced with trypsin-EDTA (0.025%) in DMEM/F12 and incubated for an additional 15 min to disrupt the remaining cell-to-cell adhesions. The solution was then replaced with DMEM/F12 and FBS (1:3) to neutralize trypsin. DRG were triturated to create a cell suspension and gently layered onto 15% bovine serum albumin (BSA) solution without mixing and centrifuged for 6 min at 280 g with minimal acceleration and no deceleration to separate non-neuronal cells and debris (Owen D E, et al. (2012) Methods Mol Biol. 846:179-187). […]
Intracellular cytosolic Ca^2+ was evaluated by Fura-2 loaded DRG neurons (Khomula E V, et al. (2019) J Neurosci. 39:7061-7073). […]

dissociated DRG neurons [2] = experiment: FluoVolt membrane potential imaging of dissociated DRG neurons; assay type: cell-based, mouse; conditions: NGF exposure 1 day; capsaicin stimulation
Source text: DRG were isolated from mice using a modified version of the previously described protocol (Perner C, et al. (2021) STAR Protoc. 2:100333). Briefly, mice were euthanized and dosed in 70% ethanol to prevent fur contamination. Mice were positioned prone, and an incision was made along the spine from the neck to the base of the tail. Under a dissecting microscope, the surrounding soft tissue of the spinal column was removed from the dorsal side by Friedman-Pearson Rongeurs (Fine Science Tools, Foster City, CA, Cat #16021-14) from the mid thoracic region to the lumbosacral joint. The vertebral bone surrounding the DRG was gently crushed and removed with rongeurs exposing the spinal cord. The DRG were carefully extracted near the foramen between the vertebral levels. L3 and L4 DRG were collected for analyses. Dissected DRG were placed directly into ice-cold DMEM-F12 medium (ThermoFisher, Cat #11320033) for in vitro culture, Trizol (ThermoFisher, Cat #15596018) for PCR analyses, or 4% PFA for histology. For cell culture experiments, collected DRG were digested in digestion solution comprised of collagenase type II (Worthington, Lakewood, NJ, Cat #LS004176) and dispase (1.5 mg/mL each) dissolved in DMEM/F12. […]
DRG neuron potential changes were evaluated with FluoVolt, a voltage sensitive indicator dye (ThermoFisher, Cat #F10488). […]

adenosine mediated upregulation of osteogenic markers (Runx2, Sp7, Ibsp) (ADORA2B): attenuated
Compound: CCCn1c(=O)[nH]c2nc(-c3ccc(S(=O)(=O)N4CCN(c5ccc(Cl)cc5)CC4)cc3)[nH]c2c1=O [PSB 603]

average and peak fluorescence intensity vs vehicle control lacking DPCPX (ADORA1): increase
Compound: CCCn1c(=O)c2[nH]c(C3CCCC3)nc2n(CCC)c1=O [DPCPX, 8-Cyclopentyl-1,3-dipropylxanthine]

TRPV1 receptor expression in TUBB3-positive neurons (TRPV1): significantly increased
Compound: NGF: nerve growth factor, used as model molecule for in vitro sensitization of DRG neurons
functional responses of DRG neurons to capsaicin (Fura-2 intensity) (dissociated DRG neurons [1]): increased
membrane potential of DRG neurons (FluoVolt) (dissociated DRG neurons [2]): increased
